From ChEMBL document CHEMBL1201862, “PubChem BioAssay data set” (2004)
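Cultured in 96-well plates, cells were exposed to test compound for 48 hours across five concentrations. At the GI50, growth is halved.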 Calls of active or inactive are those of the source. No stated cut-off is given here; in the data, active = GI50 up to about 1.1 µM and inactive = higher.

Legend:
Assay in all cases: NCI anticancer screen, dose series, 48 h
[1] = test system: 786-0
[2] = test system: TK-10
[3] = test system: OVCAR-3
[4] = test system: Hs-578T
[5] = test system: UACC-62
[6] = test system: A498
[7] = test system: PC-3
[8] = test system: UO-31
[9] = test system: LOX IMVI
[10] = test system: HL-60
[11] = test system: SNB-75
[12] = test system: SF-539
[13] = test system: DU-145
[14] = test system: HT-29
[15] = test system: MOLT-4
[16] = test system: NCI-H23
[17] = test system: MDA-MB-435
[18] = test system: A549
[19] = test system: SK-MEL-2

Row | Structure (SMILES) | GI50 [1] | GI50 [2] | GI50 [3] | GI50 [4] | GI50 [5] | GI50 [6] | GI50 [7] | GI50 [8] | GI50 [9] | GI50 [10] | GI50 [11] | GI50 [12] | GI50 [13] | GI50 [14] | GI50 [15] | GI50 [16] | GI50 [17] | GI50 [18] | GI50 [19]
1 | CC(C)OP(=O)(OC(C)C)C(C(C)C)N(C)/C(F)=N/C(F)(F)F (stereo not given) | > 100 µM (inactive) | > 100 µM (inactive) | > 100 µM (inactive) | > 100 µM (inactive) | > 100 µM (inactive) | > 100 µM (inactive) | > 100 µM (inactive) | > 100 µM (inactive) | > 100 µM (inactive) | 31 µM (inactive) | > 100 µM (inactive) | > 100 µM (inactive) | > 100 µM (inactive) | > 100 µM (inactive) | 75.7 µM (inactive) | > 100 µM (inactive) | > 100 µM (inactive) | > 100 µM (inactive) | 
2 | Cc1cc2c(cc1Cl)SC(c1ccccc1)C(=O)NS2(=O)=O (stereo not given) | 31.6 µM (inactive) | 37.6 µM (inactive) | 21.6 µM (inactive) | 27.5 µM (inactive) |  | 26.9 µM (inactive) | 26.4 µM (inactive) | 28.1 µM (inactive) | 31.6 µM (inactive) | 29.3 µM (inactive) | 19.7 µM (inactive) | 26.7 µM (inactive) | 34.9 µM (inactive) | 32 µM (inactive) | 26 µM (inactive) | 24.4 µM (inactive) | 35.1 µM (inactive) |  | 17.3 µM (inactive)
3 | CCOC(=O)CCC(NC(=O)Cc1ccc(Nc2nc3ccccc3nc2-c2ccccc2)cc1)C(=O)OCC (stereo not given) | 7.83 µM (inactive) | 14 µM (inactive) |  | 10.2 µM (inactive) | 50.4 µM (inactive) | 37 µM (inactive) | 17.4 µM (inactive) | > 100 µM (inactive) | > 100 µM (inactive) | > 100 µM (inactive) | 8.79 µM (inactive) | 20 µM (inactive) | > 100 µM (inactive) | > 100 µM (inactive) | > 100 µM (inactive) | 20.7 µM (inactive) | > 100 µM (inactive) | 79.6 µM (inactive) | 16.5 µM (inactive)
4 | COC(=O)C1=C(C(=O)OC)C(C(=O)c2ccc(Br)cc2)N2N=C(c3ccc(Cl)cc3)C=CC12 (stereo not given) | > 100 µM (inactive) | > 100 µM (inactive) | > 100 µM (inactive) | > 100 µM (inactive) | 25.2 µM (inactive) | > 100 µM (inactive) | 80.4 µM (inactive) | > 100 µM (inactive) | > 100 µM (inactive) | > 100 µM (inactive) | 35.2 µM (inactive) |  | > 100 µM (inactive) |  | > 100 µM (inactive) | > 100 µM (inactive) | > 100 µM (inactive) | 98.2 µM (inactive) | > 100 µM (inactive)
5 | Cc1nc(C)c(N2CCN(C(=O)NC(CCC(=O)O)C(=O)O)CC2)c(O)n1 (stereo not given) | > 100 µM (inactive) | > 100 µM (inactive) | > 100 µM (inactive) | > 100 µM (inactive) | > 100 µM (inactive) | > 100 µM (inactive) | > 100 µM (inactive) | > 100 µM (inactive) | > 100 µM (inactive) | > 100 µM (inactive) | < 0.01 µM (active) | > 100 µM (inactive) | > 100 µM (inactive) | > 100 µM (inactive) | > 100 µM (inactive) | > 100 µM (inactive) | > 100 µM (inactive) | > 100 µM (inactive) | 
6 | Cc1cn([C@H]2CN(O)C[C@@H](CO)O2)c(=O)[nH]c1=O | > 100 µM (inactive) | > 100 µM (inactive) |  | > 100 µM (inactive) | > 100 µM (inactive) | > 100 µM (inactive) | > 100 µM (inactive) | > 100 µM (inactive) |  | > 100 µM (inactive) | > 100 µM (inactive) | > 100 µM (inactive) | > 100 µM (inactive) |  | > 100 µM (inactive) |  | > 100 µM (inactive) | > 100 µM (inactive) | > 100 µM (inactive)
7 | CC(N)(CC(O)(C(F)(F)Cl)C(F)(F)Cl)C(=O)O (stereo not given) | > 10 µM (inactive) | > 10 µM (inactive) | > 10 µM (inactive) | > 10 µM (inactive) | > 10 µM (inactive) | > 10 µM (inactive) | > 10 µM (inactive) | > 10 µM (inactive) | > 10 µM (inactive) |  | > 10 µM (inactive) | > 10 µM (inactive) | > 10 µM (inactive) | > 10 µM (inactive) | > 10 µM (inactive) | > 10 µM (inactive) | > 10 µM (inactive) | > 10 µM (inactive) | 
8 | C=C1OC2OC(C)C(NC(=O)OCC(Cl)(Cl)Cl)C(OC(C)=O)C2O1 (stereo not given) | > 100 µM (inactive) | > 100 µM (inactive) | > 100 µM (inactive) | > 100 µM (inactive) | > 100 µM (inactive) | > 100 µM (inactive) | > 100 µM (inactive) | > 100 µM (inactive) | > 100 µM (inactive) | > 100 µM (inactive) |  | > 100 µM (inactive) | > 100 µM (inactive) | > 100 µM (inactive) | > 100 µM (inactive) | > 100 µM (inactive) | > 100 µM (inactive) | > 100 µM (inactive) | 
9 | NNC(=O)c1ccc[n+](CCc2ccccc2)c1 | > 100 µM (inactive) | > 100 µM (inactive) | > 100 µM (inactive) | > 100 µM (inactive) | > 100 µM (inactive) | > 100 µM (inactive) | > 100 µM (inactive) | > 100 µM (inactive) | > 100 µM (inactive) | > 100 µM (inactive) | > 100 µM (inactive) |  | > 100 µM (inactive) | > 100 µM (inactive) | > 100 µM (inactive) | > 100 µM (inactive) | > 100 µM (inactive) | > 100 µM (inactive) | 
10 | CCn1c(SCc2nnc(Nc3ccccc3)s2)nc2ccccc2c1=O | 2.02 µM (inactive) | 3.45 µM (inactive) | 5.19 µM (inactive) | 2.39 µM (inactive) | 3.3 µM (inactive) | 1.67 µM (inactive) | 8.79 µM (inactive) | 3.08 µM (inactive) | 5.02 µM (inactive) |  | 3.85 µM (inactive) | 3.27 µM (inactive) | 9.1 µM (inactive) | 2.95 µM (inactive) | 42.6 µM (inactive) | 4.7 µM (inactive) | 10.3 µM (inactive) | 3.67 µM (inactive) | 5.14 µM (inactive)
11 | Cc1cc(S(=O)(=O)Nc2nc3ccccc3nc2-c2ccc(Cl)cc2)c(S)cc1Cl | 21 µM (inactive) | 28.6 µM (inactive) | 16.3 µM (inactive) | 27 µM (inactive) | 12.2 µM (inactive) | 16.3 µM (inactive) | 17.1 µM (inactive) | 15.9 µM (inactive) |  | 21.6 µM (inactive) |  | 19.9 µM (inactive) | 16.3 µM (inactive) | 17.5 µM (inactive) | 13.8 µM (inactive) | 18.5 µM (inactive) | 17.3 µM (inactive) | 16.4 µM (inactive) | 13.7 µM (inactive)
12 | CC1(C)C(CCO)CC1n1ccc(=O)[nH]c1=O (stereo not given) | > 100 µM (inactive) | > 100 µM (inactive) | > 100 µM (inactive) | > 100 µM (inactive) | > 100 µM (inactive) | > 100 µM (inactive) | > 100 µM (inactive) | > 100 µM (inactive) | > 100 µM (inactive) |  | > 100 µM (inactive) | > 100 µM (inactive) | > 100 µM (inactive) |  |  |  | > 100 µM (inactive) | > 100 µM (inactive) | > 100 µM (inactive)
13 | O=C1C(=c2cc3c(c4ccccc24)=NC24CCCCC2C(c2ccccc2)C=C(c2ccccc2)N34)C(=O)c2ccccc21 (stereo not given) | 48.6 µM (inactive) | > 100 µM (inactive) | 22 µM (inactive) | 34 µM (inactive) |  | > 100 µM (inactive) | 25.8 µM (inactive) | 22.9 µM (inactive) | 34.2 µM (inactive) | 27.7 µM (inactive) | 54 µM (inactive) | 41.1 µM (inactive) | 57.3 µM (inactive) | 53 µM (inactive) | 16.6 µM (inactive) |  | 22 µM (inactive) | 41 µM (inactive) | 42.5 µM (inactive)
14 | O=c1c2cc(S(=O)(=O)O)ccc2nc(COc2ccc(Oc3ccc(Cl)cc3Cl)cc2)n1-c1ccc(Cl)cc1Oc1c(Cl)cccc1Cl | 24.7 µM (inactive) | 29.4 µM (inactive) | 23.7 µM (inactive) | 26.1 µM (inactive) | 20.1 µM (inactive) | 25.3 µM (inactive) | 36.4 µM (inactive) | 18.3 µM (inactive) | 17.5 µM (inactive) | 47.1 µM (inactive) |  | 16.5 µM (inactive) | 38 µM (inactive) | 20 µM (inactive) | 36 µM (inactive) | 24.2 µM (inactive) | 25.6 µM (inactive) | 23.7 µM (inactive) | 18.6 µM (inactive)
15 | COc1ccc2nc3ccc(OC)cc3c(SCc3ccccc3)c2c1 | 76 µM (inactive) | > 80.7 µM (inactive) | > 100 µM (inactive) | > 100 µM (inactive) | > 100 µM (inactive) | > 100 µM (inactive) | > 100 µM (inactive) |  | > 83.4 µM (inactive) | > 100 µM (inactive) | > 88.7 µM (inactive) | > 89.3 µM (inactive) | > 100 µM (inactive) | > 100 µM (inactive) | > 41.6 µM (inactive) | 64.7 µM (inactive) | > 76.9 µM (inactive) | > 82.4 µM (inactive) | > 100 µM (inactive)
16 | COc1ccc2c(c1)CCC/C2=N\NS(=O)(=O)c1c(C)cc(C)cc1C | 19.1 µM (inactive) | 51.4 µM (inactive) | 32.4 µM (inactive) | 30.6 µM (inactive) | 18.7 µM (inactive) | 31.8 µM (inactive) | 28.6 µM (inactive) | 28.9 µM (inactive) | 19.4 µM (inactive) |  | 13.8 µM (inactive) | 19.2 µM (inactive) | 25.6 µM (inactive) | 20.7 µM (inactive) | 25.5 µM (inactive) | 24.8 µM (inactive) | 27.7 µM (inactive) | 34.9 µM (inactive) | 34.3 µM (inactive)
